Laboratory results: publication PMC8969299 (Chemical Engineering Journal, 2022)

Tests used:
[1] = Fluorescence lifetime of COVID19-PEB before/after annealing; type: physicochemical; settings: before annealing; Oligo-Cy3 and Oligo-BHQ2 fixed at 10 nmol; Fig. 3c
[2] = tested on: SARS-CoV-2; test: Fluorescence
[3] = tested on: influenza A virus; test: Fluorescence response of COVID19-PEB to influenza A virus; set-up: species or system influenza A (pH1N1) virus (Human/Canada/2009); settings: COVID 19-PEB 10 nmol in 100 µL; 25 °C; n = 3; Fig. 4d
[4] = tested on: influenza B virus; test: Fluorescence response of COVID19-PEB to influenza B virus; set-up: species or system influenza B viruses (Victoria Brisbane/20/2009); settings: COVID 19-PEB 10 nmol in 100 µL; 25 °C; n = 3; Fig. 4e
[5] = tested on: HCoV-OC43; test: Fluorescence response of COVID19-PEB to HCoV-OC43; set-up: species or system Human coronavirus OC43 (HCoV-OC43); settings: COVID 19-PEB 10 nmol in 100 µL; 25 °C; n = 3; Fig. 4f
[6] = tested on: SARS-CoV-2; test: Fluorescence detection of SARS-CoV-2 in biofluids; settings: 10% nasal fluid and 10% saliva; n = 3; Fig. 5
[7] = tested on: SARS-CoV-2; test: Detection of SARS-CoV-2 in clinical patient samples using COVID19-PEB
[8] = tested on: SARS-CoV-2 and its variants
[9] = target: SARS-CoV-2 S protein RBD (Severe acute respiratory syndrome coronavirus 2, UniProt P0DTC2)

Cy3-TTTTGGGGG- I EEQA KTFL DKFN HEAE DLFY QSSL ASWK-CCCCCAAAA-BHQ2 [COVID19-PEB]
fluorescence lifetime [1]: 2.23 ± 0.02 ns
detection time, SARS-CoV-2 ([2]; COVID19-PEB): ≤ 3 h
detection time, SARS-CoV-2 (shortest stated) ([2]; COVID19-PEB): ≤ 50 min
time within which intensity change could be measured, SARS-CoV-2 ([2]; COVID 19-PEB 10 nmol, Fig. S4): ≤ 1 h
detection limit, SARS-CoV-2 ([2]; COVID19-PEB fluorescence, 100 µL test): 4 × 10^3 plaque-forming unit/test
change in fluorescence signal, influenza A virus [3]: no change in fluorescence signal was observed
change in fluorescence signal, influenza B virus [4]: no change in fluorescence signal was observed
change in fluorescence signal, HCoV-OC43 [5]: no change in fluorescence signal was observed
detection of SARS-CoV-2 in biofluid [6]: efficiently detected SARS-CoV-2 in the biofluid, with high sensitivity
detection of virus in PCR-confirmed patient samples [7]: accurately detected the virus
discrimination among genetic mutations in SARS-CoV-2 [8]: does not effectively discriminate among the genetic mutations in SARS-CoV-2
detection of SARS-CoV-2 and its variants ([8]; Fig. S5): useful for sensitive and rapid detection of SARS-CoV-2 and its variants
fluorescence intensity with increasing concentration of S proteins [9]: gradually increased with the increasing concentration of the S proteins
time within which intensity change could be measured, S protein RBD [9]: ≤ 1 h
